{"source": "paper PMC5218480", "about": "(PLoS ONE, 2017)", "system": "MV-4-11 cells", "experiment": "Gene expression microarray analysis (Affymetrix PrimeView) and GSEA", "assay_type": "cell-based, human", "set-up": "RFU PODN (11730768_x_at) / Fold change /veh PODN (11730768_x_at) / RFU LINC00158 (11744669_a_at) / Fold change /veh LINC00158 (11744669_a_at) / RFU DUSP10 (11751237_a_at) / Fold change /veh DUSP10 (11751237_a_at) / RFU ID3 (11757404_x_at) / Fold change /veh ID3 (11757404_x_at) / RFU PLEKHG5 (11737974_s_at) / Fold change /veh PLEKHG5 (11737974_s_at) / RFU LRRC4B (11730491_at) / Fold change /veh LRRC4B (11730491_at) / RFU GIMAP4 (11747438_a_at) / Fold change /veh GIMAP4 (11747438_a_at) / RFU KRT8 (11758183_x_at) / Fold change /veh KRT8 (11758183_x_at) / RFU CNN1 (11734310_a_at) / Fold change /veh CNN1 (11734310_a_at) / RFU VPS37D (11726825_at) / Fold change /veh VPS37D (11726825_at) / RFU C10orf10 (11716522_x_at) / Fold change /veh C10orf10 (11716522_x_at) / RFU KIR2DL2 /// KIR2DL4 /// KIR2DL5A /// KIR2DL5B /// KIR2DS1 /// KIR2DS2 /// KIR2DS3 /// KIR2DS4 /// KIR3DL3 /// KIR3DL3 /// KIR3DS1 (11738374_at) / Fold change /veh KIR2DL2 /// KIR2DL4 /// KIR2DL5A /// KIR2DL5B /// KIR2DS1 /// KIR2DS2 /// KIR2DS3 /// KIR2DS4 /// KIR3DL3 /// KIR3DL3 /// KIR3DS1 (11738374_at) / RFU C1QL1 (11718748_at) / Fold change /veh C1QL1 (11718748_at) / RFU TMPRSS4 (11747572_a_at) / Fold change /veh TMPRSS4 (11747572_a_at) / RFU HAMP (11756126_x_at) / Fold change /veh HAMP (11756126_x_at) / RFU RNFT2 (11725882_a_at) / Fold change /veh RNFT2 (11725882_a_at) / RFU NR4A2 (11747474_a_at) / Fold change /veh NR4A2 (11747474_a_at) / RFU ABCC12 (11746883_a_at) / Fold change /veh ABCC12 (11746883_a_at) / RFU TMEM136 (11760407_x_at) / Fold change /veh TMEM136 (11760407_x_at) / RFU CLDN22 /// WWC2 (11732394_at) / Fold change /veh CLDN22 /// WWC2 (11732394_at) / RFU HLA-DPB1 (11760878_x_at) / Fold change /veh HLA-DPB1 (11760878_x_at) / RFU SPINT1 (11716480_a_at) / Fold change /veh SPINT1 (11716480_a_at) / RFU GAP43 (11754022_s_at) / Fold change /veh GAP43 (11754022_s_at) / RFU A4GNT (11735810_at) / Fold change /veh A4GNT (11735810_at) / RFU PRB3 (11715151_x_at) / Fold change /veh PRB3 (11715151_x_at) / RFU TUBB4B (11761932_at) / Fold change /veh TUBB4B (11761932_at) / RFU CAPN14 (11732068_a_at) / Fold change /veh CAPN14 (11732068_a_at) / RFU TMCC2 (11721928_a_at) / Fold change /veh TMCC2 (11721928_a_at) / RFU IRGQ (11745062_a_at) / Fold change /veh IRGQ (11745062_a_at) / RFU FAM174B (11720279_a_at) / Fold change /veh FAM174B (11720279_a_at) / RFU TMPRSS4 (11748680_a_at) / Fold change /veh TMPRSS4 (11748680_a_at) / RFU FAM212B (11763350_a_at) / Fold change /veh FAM212B (11763350_a_at) / RFU PLEKHG5 (11743358_a_at) / Fold change /veh PLEKHG5 (11743358_a_at) / RFU ZSCAN30 (11745921_a_at) / Fold change /veh ZSCAN30 (11745921_a_at) / RFU CMKLR1 (11741424_a_at) / Fold change /veh CMKLR1 (11741424_a_at) / RFU LOC101060620 /// MAPK8IP1 (11723275_at) / Fold change /veh LOC101060620 /// MAPK8IP1 (11723275_at) / RFU SPTSSB (11747773_x_at) / Fold change /veh SPTSSB (11747773_x_at) / RFU PRSS12 (11739890_at) / Fold change /veh PRSS12 (11739890_at) / RFU BIN1 (11741810_x_at) / Fold change /veh BIN1 (11741810_x_at) / RFU WNT11 (11732464_a_at) / Fold change /veh WNT11 (11732464_a_at) / RFU C10orf10 (11716521_a_at) / Fold change /veh C10orf10 (11716521_a_at) / RFU C5orf56 (11738089_at) / Fold change /veh C5orf56 (11738089_at) / RFU CYB561 (11721691_x_at) / Fold change /veh CYB561 (11721691_x_at) / RFU ANKRD19P (11752326_a_at) / Fold change /veh ANKRD19P (11752326_a_at) / RFU OR2T12 /// OR2T33 /// OR2T8 (11738714_s_at) / Fold change /veh OR2T12 /// OR2T33 /// OR2T8 (11738714_s_at) / RFU VCAN (11748164_a_at) / Fold change /veh VCAN (11748164_a_at) / RFU JSRP1 (11732532_at) / Fold change /veh JSRP1 (11732532_at) / RFU KRTAP10-11 (11738290_x_at) / Fold change /veh KRTAP10-11 (11738290_x_at) / RFU MYO3A (11730013_a_at) / Fold change /veh MYO3A (11730013_a_at) / RFU EBF3 (11725865_a_at) / Fold change /veh EBF3 (11725865_a_at) / RFU CAMK2N1 (11719241_x_at) / Fold change /veh CAMK2N1 (11719241_x_at) / RFU C5orf56 (11738088_a_at) / Fold change /veh C5orf56 (11738088_a_at) / RFU OLFML3 (11715873_a_at) / Fold change /veh OLFML3 (11715873_a_at) / RFU LOC100653217 /// NTM (11731650_a_at) / Fold change /veh LOC100653217 /// NTM (11731650_a_at) / RFU MAPK11 (11762145_a_at) / Fold change /veh MAPK11 (11762145_a_at) / RFU FIZ1 (11724087_x_at) / Fold change /veh FIZ1 (11724087_x_at) / RFU OASL (11726364_x_at) / Fold change /veh OASL (11726364_x_at) / RFU SOX15 (11748057_x_at) / Fold change /veh SOX15 (11748057_x_at) / RFU CD79A (11719716_a_at) / Fold change /veh CD79A (11719716_a_at) / RFU HIST1H1D (11736915_at) / Fold change /veh HIST1H1D (11736915_at) / RFU CASKIN2 (11723855_a_at) / Fold change /veh CASKIN2 (11723855_a_at) / RFU LOC730098 (11760151_x_at) / Fold change /veh LOC730098 (11760151_x_at) / RFU OR4N2 (11742367_at) / Fold change /veh OR4N2 (11742367_at) / RFU PRRT2 (11749266_a_at) / Fold change /veh PRRT2 (11749266_a_at) / RFU SNX32 (11753110_a_at) / Fold change /veh SNX32 (11753110_a_at) / RFU CDHR5 (11726645_a_at) / Fold change /veh CDHR5 (11726645_a_at) / RFU RCAN1 (11760418_a_at) / Fold change /veh RCAN1 (11760418_a_at) / RFU FAM167A (11723789_a_at) / Fold change /veh FAM167A (11723789_a_at) / RFU FAM26E (11764081_at) / Fold change /veh FAM26E (11764081_at) / RFU ISYNA1 (11749810_s_at) / Fold change /veh ISYNA1 (11749810_s_at) / RFU ACY1 (11761880_at) / Fold change /veh ACY1 (11761880_at) / RFU 11764098_at / Fold change /veh 11764098_at / RFU SAMD14 (11745864_x_at) / Fold change /veh SAMD14 (11745864_x_at) / RFU NPB (11741838_a_at) / Fold change /veh NPB (11741838_a_at) / RFU TMPRSS6 (11731388_a_at) / Fold change /veh TMPRSS6 (11731388_a_at) / RFU KRTAP10-2 (11738614_at) / Fold change /veh KRTAP10-2 (11738614_at) / RFU ARHGAP8 /// PRR5-ARHGAP8 (11727945_x_at) / Fold change /veh ARHGAP8 /// PRR5-ARHGAP8 (11727945_x_at) / RFU KRTAP5-7 /// NADSYN1 (11734609_at) / Fold change /veh KRTAP5-7 /// NADSYN1 (11734609_at) / RFU RASL12 (11751679_a_at) / Fold change /veh RASL12 (11751679_a_at) / RFU CDKN2B (11736163_a_at) / Fold change /veh CDKN2B (11736163_a_at) / RFU PRF1 (11729649_at) / Fold change /veh PRF1 (11729649_at) / RFU, ZNF638 /// ZNF638-IT1 / Fold change vs veh, ZNF638 /// ZNF638-IT1 / RFU, PANK3 / Fold change vs veh, PANK3 / RFU, SH3YL1 / Fold change vs veh, SH3YL1 / RFU, ZEB2 / Fold change vs veh, ZEB2 / RFU, NRIP1 / Fold change vs veh, NRIP1 / RFU, PTTG1IP / Fold change vs veh, PTTG1IP / RFU, CAPN2 / Fold change vs veh, CAPN2 / RFU, MED14 / Fold change vs veh, MED14 / RFU, SNORA58 / Fold change vs veh, SNORA58 / RFU, C1orf63 / Fold change vs veh, C1orf63 / RFU, LRRFIP1 / Fold change vs veh, LRRFIP1 / RFU, NDUFAF7 / Fold change vs veh, NDUFAF7 / RFU, SLC12A2 / Fold change vs veh, SLC12A2 / RFU, IBTK / Fold change vs veh, IBTK / RFU, ESF1 / Fold change vs veh, ESF1 / Fold change vs veh, TMEM50B / RFU, TAOK1 / Fold change vs veh, TAOK1 / RFU, ACBD3 / Fold change vs veh, ACBD3 / RFU, TMA16 / Fold change vs veh, TMA16 / RFU, RWDD3 / Fold change vs veh, RWDD3 / RFU, BCAT1 / Fold change vs veh, BCAT1 / RFU, EDEM3 / Fold change vs veh, EDEM3 / RFU, TMEM33 / Fold change vs veh, TMEM33 / RFU, WDR75 / Fold change vs veh, WDR75 / RFU, AHCTF1 / Fold change vs veh, AHCTF1 / RFU, TFRC / Fold change vs veh, TFRC / RFU, ZDHHC17 / Fold change vs veh, ZDHHC17 / RFU, NOM1 / Fold change vs veh, NOM1 / RFU, ARL8B / Fold change vs veh, ARL8B / RFU, ZBTB11 / Fold change vs veh, ZBTB11 / RFU, TAMM41 / Fold change vs veh, TAMM41 / RFU, KIAA1704 /// LOC100996395 / Fold change vs veh, KIAA1704 /// LOC100996395 / RFU, ING1 / Fold change vs veh, ING1 / RFU, TRMT61B / Fold change vs veh, TRMT61B / RFU, FUBP3 / Fold change vs veh, FUBP3 / RFU, TP53 / Fold change vs veh, TP53 / RFU, TNKS2 / Fold change vs veh, TNKS2 / RFU, ZFP14 / Fold change vs veh, ZFP14 / RFU, ACTR2 / Fold change vs veh, ACTR2 / RFU, PPP3R1 / Fold change vs veh, PPP3R1 / RFU, PIK3R1 / Fold change vs veh, PIK3R1 / RFU, HNRNPA1 / Fold change vs veh, HNRNPA1 / RFU, RNF170 / Fold change vs veh, RNF170 / RFU, ZNF28 / Fold change vs veh, ZNF28 / RFU, RNGTT / Fold change vs veh, RNGTT / RFU, OGT / Fold change vs veh, OGT / RFU, BRD1 / Fold change vs veh, BRD1 / RFU, MARS / Fold change vs veh, MARS / RFU, ZNF655 / Fold change vs veh, ZNF655 / RFU, FAHD1 / Fold change vs veh, FAHD1 / RFU, BDP1 / Fold change vs veh, BDP1 / RFU, LRRCC1 / Fold change vs veh, LRRCC1 / RFU, ARID1A / Fold change vs veh, ARID1A / RFU, ZNF146 / Fold change vs veh, ZNF146 / RFU, ZNF330 / Fold change vs veh, ZNF330 / RFU, GPN3 / Fold change vs veh, GPN3 / RFU, C9orf123 / Fold change vs veh, C9orf123 / RFU, N4BP2L2 / Fold change vs veh, N4BP2L2 / RFU, ARFIP1 / Fold change vs veh, ARFIP1 / RFU, FAM179B / Fold change vs veh, FAM179B / RFU, BCL10 / Fold change vs veh, BCL10 / RFU, UHRF1BP1L / Fold change vs veh, UHRF1BP1L / RFU, BET1 / Fold change vs veh, BET1 / RFU, CNOT2 / Fold change vs veh, CNOT2 / RFU, ZNF268 / Fold change vs veh, ZNF268 / Fold change vs veh, ZNF507 / RFU, DGCR2 / Fold change vs veh, DGCR2 / RFU, WDSUB1 / Fold change vs veh, WDSUB1 / Fold change vs veh, HSP90B1 /// MIR3652 / RFU, ADSS / Fold change vs veh, ADSS / RFU, GK / Fold change vs veh, GK / RFU, ZNF148 / Fold change vs veh, ZNF148 / RFU, TAF9 / Fold change vs veh, TAF9 / RFU, SLC1A5 / Fold change vs veh, SLC1A5 / RFU, SLMO2 / Fold change vs veh, SLMO2 / RFU, ABCC4 / Fold change vs veh, ABCC4 / RFU, LOC101060439 /// RAP1B / Fold change vs veh, LOC101060439 /// RAP1B / RFU, RFX7 / Fold change vs veh, RFX7 / RFU, GTPBP10 / Fold change vs veh, GTPBP10 / RFU, CNEP1R1 / Fold change vs veh, CNEP1R1 / RFU, BIVM-ERCC5 /// ERCC5 / Fold change vs veh, BIVM-ERCC5 /// ERCC5 / RFU, ILF3 / Fold change vs veh, ILF3 / RFU 11762660_at / Fold change /veh 11762660_at / RFU VCAN (11757783_s_at) / Fold change /veh VCAN (11757783_s_at) / RFU DDX43 (11728927_at) / Fold change /veh DDX43 (11728927_at) / RFU KRT8 (11758188_x_at) / Fold change /veh KRT8 (11758188_x_at) / RFU NKD1 (11759106_at) / Fold change /veh NKD1 (11759106_at) / RFU SRD5A1 (11742802_a_at) / Fold change /veh SRD5A1 (11742802_a_at) / RFU TPSAB1 /// TPSB2 (11721975_s_at) / Fold change /veh TPSAB1 /// TPSB2 (11721975_s_at) / RFU GSTM3 (11746129_a_at) / Fold change /veh GSTM3 (11746129_a_at) / RFU IL23R (11737362_x_at) / Fold change /veh IL23R (11737362_x_at) / RFU TMEM51 (11727254_a_at) / Fold change /veh TMEM51 (11727254_a_at) / RFU PIWIL2 (11732686_x_at) / Fold change /veh PIWIL2 (11732686_x_at) / RFU ORM1 (11744905_x_at) / Fold change /veh ORM1 (11744905_x_at) / RFU CCDC152 (11743942_at) / Fold change /veh CCDC152 (11743942_at) / RFU ECM1 (11717891_a_at) / Fold change /veh ECM1 (11717891_a_at) / RFU IL23R (11748794_a_at) / Fold change /veh IL23R (11748794_a_at) / RFU TNFAIP8L3 (11732012_x_at) / Fold change /veh TNFAIP8L3 (11732012_x_at) / RFU MBOAT4 (11741988_at) / Fold change /veh MBOAT4 (11741988_at) / RFU 11764193_at / Fold change /veh 11764193_at / RFU TMEM53 (11763286_at) / Fold change /veh TMEM53 (11763286_at) / RFU MAGEB2 (11727129_at) / Fold change /veh MAGEB2 (11727129_at) / RFU TMEM200A (11744735_a_at) / Fold change /veh TMEM200A (11744735_a_at) / RFU CCDC152 (11751479_a_at) / Fold change /veh CCDC152 (11751479_a_at) / RFU FAM211A (11726209_a_at) / Fold change /veh FAM211A (11726209_a_at) / RFU RGS16 (11746705_a_at) / Fold change /veh RGS16 (11746705_a_at) / RFU VCAN (11755009_s_at) / Fold change /veh VCAN (11755009_s_at) / RFU RHOB (11743442_s_at) / Fold change /veh RHOB (11743442_s_at) / RFU RGS16 (11720943_a_at) / Fold change /veh RGS16 (11720943_a_at) / RFU RGS16 (11720944_at) / Fold change /veh RGS16 (11720944_at) / RFU, VPS4B / Fold change vs veh, VPS4B / RFU, CREB1 / Fold change vs veh, CREB1 / RFU, DNAJC13 / Fold change vs veh, DNAJC13 / RFU, GNAQ / Fold change vs veh, GNAQ / RFU, CDK5R1 / Fold change vs veh, CDK5R1 / RFU, ZRANB3 / Fold change vs veh, ZRANB3 / RFU, CUL4A / Fold change vs veh, CUL4A / RFU, CCNY / Fold change vs veh, CCNY / RFU, UFL1 / Fold change vs veh, UFL1 / RFU, COG3 / Fold change vs veh, COG3 / RFU, DIAPH2 / Fold change vs veh, DIAPH2 / RFU, SKA2 / Fold change vs veh, SKA2 / RFU, AFF3 / Fold change vs veh, AFF3 / RFU, LMF1 / Fold change vs veh, LMF1 / RFU, IPO11 / Fold change vs veh, IPO11 / RFU, DFFB / Fold change vs veh, DFFB / RFU, FOXP1 / Fold change vs veh, FOXP1 / RFU, CARD8 / Fold change vs veh, CARD8 / RFU, STRN3 / Fold change vs veh, STRN3 / RFU, ADK / Fold change vs veh, ADK / RFU, RASSF2 / Fold change vs veh, RASSF2 / RFU, WIPF1 / Fold change vs veh, WIPF1 / RFU, LARP1B / Fold change vs veh, LARP1B / RFU, RASA1 / Fold change vs veh, RASA1 / RFU, RB1 / Fold change vs veh, RB1 / RFU, PPFIA1 / Fold change vs veh, PPFIA1 / RFU, MAT2A / Fold change vs veh, MAT2A / RFU, CCT5 / Fold change vs veh, CCT5 / RFU, WDR92 / Fold change vs veh, WDR92 / RFU, CUX1 / Fold change vs veh, CUX1 / RFU, TTC7A / Fold change vs veh, TTC7A / RFU, TMEM135 / Fold change vs veh, TMEM135 / RFU, DEPTOR / Fold change vs veh, DEPTOR / RFU, CPM / Fold change vs veh, CPM / RFU, DNAJB6 / Fold change vs veh, DNAJB6 / RFU, CACNA2D3 / Fold change vs veh, CACNA2D3 / RFU, DTX4 / Fold change vs veh, DTX4 / RFU, TFCP2 / Fold change vs veh, TFCP2 / RFU, GMCL1 /// GMCL1P1 / Fold change vs veh, GMCL1 /// GMCL1P1 / RFU, AEBP2 / Fold change vs veh, AEBP2 / RFU, SNHG1 /// SNORD22 /// SNORD25 /// SNORD26 /// SNORD27 /// SNORD28 /// SNORD29 /// SNORD31 / Fold change vs veh, SNHG1 /// SNORD22 /// SNORD25 /// SNORD26 /// SNORD27 /// SNORD28 /// SNORD29 /// SNORD31 / Fold change (Aza/veh), C12orf56 (ProbeSet 11735607_a_at) / Fold change (ACY-1035/veh), C12orf56 (ProbeSet 11735607_a_at) / Fold change (Aza/veh), FGFR1OP (ProbeSet 11751329_s_at) / Fold change (ACY-1035/veh), FGFR1OP (ProbeSet 11751329_s_at) / Fold change (Aza/veh), VPS36 (ProbeSet 11739960_a_at) / Fold change (ACY-1035/veh), VPS36 (ProbeSet 11739960_a_at) / RFU SYPL1 (11715823_x_at) / Fold change /veh SYPL1 (11715823_x_at) / RFU IGFBP7 (11715501_s_at) / Fold change /veh IGFBP7 (11715501_s_at) / RFU REEP3 (11722064_at) / Fold change /veh REEP3 (11722064_at) / RFU IGLL1 (11728026_x_at) / Fold change /veh IGLL1 (11728026_x_at): dose or concentration left out as unconfirmed", "settings": "ProbeSet 11718569_a_at; LIST D", "data": [{"smiles": "Nc1ncn([C@@H]2O[C@H](CO)[C@@H](O)[C@H]2O)c(=O)n1", "note": "[azacitidine]", "values": [{"measurement": "Fold change vs veh, WIPF1", "value": 0.72}]}]}
